From patent US4923882A, “Novel amine derivatives, salts thereof and an anti-ulcer agent containing the same” (Toyama Chemical Co., Ltd., priority 1982, dated 1990)
pIC50: −log10 of the molar value. Read-outs that look alike come from different tables or passages of the source.

Assays:
[1] = tested on: Stress ulcer induced by water-immersion; assay: Anti-ulcer activity: Stress ulcer induced by water-immersion; type: in vivo, Wistar rats; conditions: for ED50: Rattus norvegicus, 15 h; for Potency ratio: Cimetidine = 1
Procedure: (iii) Stress ulcer induced by water-immersion
An experiment was carried out according to the method of Takagi et al. [K. Takagi et al., Jap.
Six Wistar rats (male, 230 to 280 g) per group were starved for 24 hours, after which each drug was orally administered. After 30 minutes, the rats were placed in stress cage, immersed in water at 23° C. to the depth of xiphoid, and allowed to stand therein for 15 hours. Thereafter, the stomach of each rat was removed and then fixed with 3% formalin, after which the areas of the ulcers formed were measured under the binocular stereoscopic microscope (10×), and the sum total of the areas was taken as the ulcer index. To a control group was administered 0.5% Tween 80 physiological saline.
The inhibition percentage was determined from the following equation: [formula]

Indomethacin ulcer = assay: Anti-ulcer activity: Indomethacin ulcer; type: in vivo, Wistar strain rats; conditions: for ED50: 5 h; for Potency ratio: Cimetidine = 1
Procedure: Six Wistar strain rats (male, 200 to 250 g) per group were starved for 24 hours, after which each drug was orally administered, and after 30 minutes, Indomethacin was injected subcutaneously at a dose of 30 mg/kg. After 5 hours, each rat was killed, and the stomach was removed and fixed with 3% formalin, after which the lengths of ulcers formed in the stomach was measured under the binocular stereoscopic microscope (10×), and the sum total of the lengths was taken as the ulcer index. To a control group was administered 0.5% Tween 80 physiological saline. The inhibition percentage was determined from the following equation: [formula]

gastric acid secretion [2] = assay: Inhibitory effect on gastric acid secretion, pylorus ligation method (histamine); type: in vivo, Wistar strain rats; conditions: Rattus norvegicus, read-out: Inhibition percentage (gastric acid secretion)
Procedure: Five to six Wistar strain rats (male, 190 to 230 g) per group were starved for 35 hours, after which each drug was orally administered, and after 2 hours, the pylorus of each rat was ligated under ether anesthesia. […] After 3 hours, each rat was killed, after which the cardiac portion was ligated, and the stomach was removed. After 1 ml of distilled water was injected into the stomach, the gastric juice was collected by centrifugation and its volume was measured. The acidity of the gastric juice was measured by titrating 1 ml of the gastric juice with a 0.1N aqueous sodium hydroxide solution, taking pH 7.0 as the end-point. Physiological saline was administered to a control group.
The inhibition percentage of gastric acid secretion was determined from the following equation: [formula]

[3] = tested on: Mepirizole-induced duodenal ulcer; assay: Anti-ulcer activity: Mepirizole-induced duodenal ulcer; type: in vivo, Wistar strain rats; conditions: for rats died: in mepirizole test; for ED50: Rattus norvegicus, 18 h; for Potency ratio: Cimetidine = 1
Procedure: (ii) Mepirizole-induced duodenal ulcer
A test was carried out according to the method of Okabe et al. [S. Okabe et al., Gastrcenterology, 80, 1241 (1981)].
Six Wistar strain rats (male, 200 to 250 g) per group were starved for 24 hours, after which each drug was orally administered, and after 30 minutes, mepirizole was injected subcutaneously at a dose of 200 mg/kg. After 18 hours, the stomach and duodenum were removed and fixed with 3% formalin, after which the areas and depths of the ulcers formed in the duodenum were measured under the binocular stereoscopic microscope (10×). The scores were given in 7 grades depending on the areas and depths of the ulcers, and the sum total of the scores was taken as the ulcer index. The scores were given as follows:
That is to say, the score is 0 at an ulcer area of 0 to 0.2 mm^2, 1 at 0.2 to 1.0 mm^2, 2 at 1 to 3 mm^2, 3 at 3 to 6 mm^2, 4 at 6 to 10 mm^2,5 at 10 mm^2 or more, the ulcer in the condition immediately before perforation is scored as 6, and the ulcer which had caused perforation is scored as 7.
(§1) To a control group was administered 0.5% Tween 80 physiological saline. The inhibition percentage was determined from the following equation: [formula]

gastric acid secretion [4] = assay: Inhibitory effect on gastric acid secretion, perfused stomach preparation of anesthetized rat (histamine stimulated); type: in vivo, Wistar strain rats; conditions: intravenous; for Duration: time from complete inhibition until pH of perfusate became 4; for ED100: Rattus norvegicus, cumulative, histamine 30 μg/kg/min, read-out: Dose for complete inhibition
Procedure: (i) Perfused stomach preparation of anesthetized rat [according to M. N. Ghosh and H. O. Schild: Brit. J. Pharmacol. 13, 54 (1958)]
Wistar strain rats (male, 200 to 250 g) starved for 18 hours were anesthetized with urethane and then subjected to laparotomy, after which the forestomach region of the stomach of each rat was incised. The whole interior of the stomach was sufficiently washed with physiological saline, and the cut edges were sutured. A silicon tube was inserted into the stomach to a length of about 5 mm from the duodenum side and fixed. Subsequently, the stomach was perfused with physiological saline adjusted to a pH of about 10 with an aqueous sodium hydroxide solution at a constant rate (1 ml/min) through an oral sonde, and the change in pH of the perfusate which had flowed out through the silicone tube was continuously recorded. During the perfusion, histamine (30 μg/kg/min) was continuously injected, as an agent for stimulating gastric acid secretion, through the femoral vein at a rate of 0.3 ml/min. Each drug was intravenously administered when the acid secretion became almost constant (pH 3.3±0.2), and cumulatively administered when the inhibition of acid secretion at each dose reached a plateau.
The number of experiments was three for each dose.

[5] = tested on: isolated guinea pig atrium; assay: Effect on isolated guinea pig atrium (histamine-induced heart rate); design: species or system Hartley guinea pig; conditions: for Potency ratio: Cimetidine = 1; for pIC50: right atrium, 5×10^-6 M histamine, 30° C., read-out: ID50 (the source's name)
Procedure: Hartley guinea pig (male, 300 to 400 g) was killed by blood-letting, immediately after which the heart was isolated, and the right atrium was separated in a Krebs-Henseleit solution and used as a preparation. […] The preparation was trained in a bath fluid, and after the heart rate became constant, 5×10^-6 M of histamine was administered. After the heart rate became constant, each drug was administered cumulatively.
The inhibition percentage was determined from the following equation: [formula] HRmin : heart rate before the administration of histamine HRmax : heart rate after the administration of histamine
HRx : heart rate at the time of the administration of each drug.
The number of experiments were five for each dose.

Reserpine ulcer = assay: Anti-ulcer activity: Reserpine ulcer; type: in vivo, Wistar strain rats; conditions: oral
Procedure: An experiment was carried out according to the method of Adami et al. [E. Adami et al., Arch. int.
Ten Wistar strain rats (male, 180 to 200 g) per group were starved for 30 hours, after which each drug was orally administered, and after 1 hour, reserpine was injected subcutaneously at a dose of 10 mg/kg. After 18 hours, the stomach was removed and fixed with 3% formalin, and thereafter the lengths of the ulcers formed in the stomach were measured with callipers. The measured values were converted to the scores described below, and the sum total of the scores was taken as the ulcer index.
That is to say, 1 to 5 pin point ulcers are scored as 1, 6 or more pin point ulcers are scored as 2, ulcers of 1 mm or less in length are scored as 1, ulcers of 1 to 2 mm in length are scored as 2, ulcers of 2 to 4 mm in length are scored as 4, and ulcers of 4 mm or more in length are scored as 8.
as §1

[6] = Rattus norvegicus, po, read-out: Inhibition percentage
[7] = oral, water-immersion stress ulcer, read-out: ID50 (the source's name)
[8] = Rattus norvegicus, oral, Indomethacin ulcer, read-out: ID50 (the source's name)
[9] = Rattus norvegicus, 10 mg/kg, oral, read-out: Inhibition percentage
[10] = oral, mepirizole-induced duodenal ulcer, read-out: ID50 (the source's name)
[11] = Rattus norvegicus, oral, read-out: Inhibition percentage

CN/C(=N/CCSCc1nc[nH]c1C)NC#N [Cimetidine, reference compound]
Inhibition percentage ([1]; 10 mg/kg, oral): 22% | Inhibition percentage ([1]; 30 mg/kg, oral): 94% | ED50 ([1]; po, read-out: ID50): 15.5 mg/kg | ED50 (Indomethacin ulcer; Rattus norvegicus, po, read-out: ID50): 27.5 mg/kg | inhibition in vivo at 10 mg/kg (Indomethacin ulcer; [6]): 18% | inhibition in vivo at 30 mg/kg (Indomethacin ulcer; [6]): 50% | inhibition in vivo at 100 mg/kg (Indomethacin ulcer; [6]): 97% | inhibition in vivo at 10 mg/kg (gastric acid secretion [2]; po): 39% | inhibition in vivo at 30 mg/kg (gastric acid secretion [2]; po): 60% | inhibition in vivo at 90 mg/kg (gastric acid secretion [2]; po): 97% | Inhibition percentage ([3]; 100 mg/kg, oral): 43% | rats died ([3]; 100 mg/kg, oral): Two of six rats died | Inhibition percentage ([3]; 300 mg/kg, oral): 59% | rats died ([3]; 300 mg/kg, oral): Four of six rats died | ED50 ([3]; po, read-out: ID50): 162 mg/kg | Duration (gastric acid secretion [4]): 16 min | Potency ratio [5]: 1 | pIC50 [5]: 5.47 | Inhibition percentage (Reserpine ulcer; 100 mg/kg): 9.7%

CNC(=C[N+](=O)[O-])NCCSCc1ccc(CN(C)C)o1 [Ranitidine, reference compound]
Inhibition percentage ([1]; 3 mg/kg, oral): 7% | Inhibition percentage ([1]; 10 mg/kg, oral): 80% | Potency ratio [1]: 2.4 | ED50 [1, 7]: 6.4 mg/kg | Potency ratio (Indomethacin ulcer): 1.8 | ED50 (Indomethacin ulcer; [8]): 15.5 mg/kg | inhibition in vivo at 10 mg/kg (Indomethacin ulcer; [9]): 18% | inhibition in vivo at 30 mg/kg (Indomethacin ulcer; Rattus norvegicus, 30 mg/kg, oral, read-out: Inhibition percentage): 98% | inhibition in vivo at 3 mg/kg (gastric acid secretion [2]; oral, histamine 25 mg/kg s.c.): 17% | inhibition in vivo at 10 mg/kg (gastric acid secretion [2]; 10 mg/kg, oral, histamine 25 mg/kg s.c.): 56% | inhibition in vivo at 30 mg/kg (gastric acid secretion [2]; 30 mg/kg, oral, histamine 25 mg/kg s.c.): 91% | Inhibition percentage ([3]; 30 mg/kg, oral): 49% | Inhibition percentage ([3]; 100 mg/kg, oral): 78% | Potency ratio [3]: 5.1 | ED50 [3, 10]: 32 mg/kg | ED100 (gastric acid secretion [4]): 0.5 mg/kg | Duration (gastric acid secretion [4]): 92 min | Inhibition percentage (Reserpine ulcer; 30 mg/kg): 33% | Inhibition percentage (Reserpine ulcer; 100 mg/kg): 40%

CN(C)Cc1ccc(CSCCNC(=C[N+](=O)[O-])NCC(O)c2ccc(O)cc2)o1 (stereo not shown) [compound 3, N-{2-[[5-(dimethylamino)methyl-2-furyl]methylthio]ethyl}-N'-[2-hydroxy-2-(4-hydroxyphenyl)ethyl]-2-nitro-1,1-ethenediamine]
Inhibition percentage ([1]; 1 mg/kg, oral): 12% | Inhibition percentage ([1]; 3 mg/kg, oral): 73% | Inhibition percentage ([1]; 10 mg/kg, oral): 83% | Potency ratio [1]: 9.0 | ED50 [1, 7]: 1.72 mg/kg | Potency ratio (Indomethacin ulcer): 8.1 | ED50 (Indomethacin ulcer; [8]): 3.4 mg/kg | inhibition in vivo at 1 mg/kg (Indomethacin ulcer; [11]): 20% | inhibition in vivo at 3 mg/kg (Indomethacin ulcer; [11]): 51% | inhibition in vivo at 10 mg/kg (Indomethacin ulcer; [9]): 71% | Inhibition percentage ([3]; 1 mg/kg, oral): 12% | Inhibition percentage ([3]; 3 mg/kg, oral): 49% | Inhibition percentage ([3]; 10 mg/kg, oral): 97% | Potency ratio [3]: 55.9 | ED50 [3, 10]: 2.9 mg/kg | ED100 (gastric acid secretion [4]): 0.1 mg/kg | Duration (gastric acid secretion [4]): 155 min | Potency ratio [5]: 14.7 | pIC50 [5]: 6.64

CN(C)Cc1ccc(CSCCNC(=C[N+](=O)[O-])NCC(O)c2ccccc2F)o1 (stereo not shown) [compound 4, N-{2-[[5-(dimethylamino)methyl-2-furyl]methylthio]ethyl}-N'-[2-(2-fluorophenyl)-2-hydroxyethyl]-2-nitro-1,1-ethenediamine]
inhibition in vivo at 3 mg/kg (gastric acid secretion [2]; oral, histamine 25 mg/kg s.c.): 75% | ED100 (gastric acid secretion [4]): 0.04 mg/kg | Duration (gastric acid secretion [4]): 220 min | Potency ratio [5]: 14.9 | pIC50 [5]: 6.65

O=[N+]([O-])C=C(NCCCOc1cccc(CN2CCCCC2)c1)NCC(O)c1ccc(F)cc1 (stereo not shown) [compound 15, N-[2-(4-fluorophenyl)-2-hydroxyethyl]-2-nitro-N'-[3-(3-piperidinomethylphenoxy)propyl]-1,1-ethenediamine]
Inhibition percentage ([1]; 1 mg/kg, oral): 42% | Inhibition percentage ([1]; 3 mg/kg, oral): 69% | Inhibition percentage ([1]; 10 mg/kg, oral): 83% | Potency ratio [1]: 11.5 | ED50 [1, 7]: 1.35 mg/kg | Potency ratio (Indomethacin ulcer): 68.8 | ED50 (Indomethacin ulcer; [8]): 0.4 mg/kg | inhibition in vivo at 0.3 mg/kg (Indomethacin ulcer; Rattus norvegicus, 0.3 mg/kg, oral, read-out: Inhibition percentage): 37% | inhibition in vivo at 1 mg/kg (Indomethacin ulcer; [11]): 88% | inhibition in vivo at 3 mg/kg (Indomethacin ulcer; [11]): 92% | inhibition in vivo at 10 mg/kg (Indomethacin ulcer; [9]): 98% | inhibition in vivo at 1 mg/kg (gastric acid secretion [2]; oral, histamine 25 mg/kg s.c.): 77% | Inhibition percentage ([3]; 1 mg/kg, oral): 2% | Inhibition percentage ([3]; 3 mg/kg, oral): 29% | Inhibition percentage ([3]; 10 mg/kg, oral): 93% | Potency ratio [3]: 36.0 | ED50 [3, 10]: 4.5 mg/kg | ED100 (gastric acid secretion [4]): 0.06 mg/kg | Duration (gastric acid secretion [4]): 180 min | Potency ratio [5]: 15.4 | pIC50 [5]: 6.66

O=[N+]([O-])C=C(NCCCOc1cccc(CN2CCCCC2)c1)NCC(O)c1ccc2c(c1)OCO2 (stereo not shown) [compound 17, N-[2-hydroxy-2-(3,4-methylenedioxyphenyl)ethyl]-2-nitro-N'-[3-(3-piperidinomethylphenoxy)propyl]-1,1-ethenediamine]
inhibition in vivo at 3 mg/kg (gastric acid secretion [2]; oral, histamine 25 mg/kg s.c.): 70% | ED100 (gastric acid secretion [4]): 0.15 mg/kg | Duration (gastric acid secretion [4]): > 280 min | Potency ratio [5]: 15.4 | pIC50 [5]: 6.66

CCc1ccc(C(O)CNC(=C[N+](=O)[O-])NCCSCc2cc(C)c(CN(C)C)s2)cc1 (stereo not shown) [compound 42, N-{2-[[5-(dimethylamino)methyl-4-methyl-2-thienyl]methylthio]ethyl}-N'-[2-(4-ethylphenyl)-2-hydroxyethyl]-2-nitro-1,1-ethenediamine]
inhibition in vivo at 1 mg/kg (gastric acid secretion [2]; oral, histamine 25 mg/kg s.c.): 57% | Potency ratio [5]: 14.1 | pIC50 [5]: 6.63
